Reference: patent US20180064808A1, “COMBINATION THERAPY OF BISPECIFIC ANTIBODIES SPECIFIC FOR FAP AND DR5 AND CHEMOTHERAPEUTIC AGENTS” (Hoffmann-La Roche Inc., priority 2014, published 2018)
Read-outs that look alike come from different tables or passages of the source.

Assays:
[1] = test system: FAP; experiment: Binding mode, specificity and species cross-reactivity of FAP binder 28H1
[2] = test system: Panc1; experiment: Combination screen PDAC cell lines (CellTiter-Glo); assay type: cell-based; details: for IC50: 3 days; for % max. inhibition (mono): first figure of mono/combo
Description: (§1) A panel of CRC and PDAC cell lines was assessed and combination partners of potential clinical relevance for the respective tumor indications were used for evaluation of combination effects (CRC: irinotecan, oxaliplatin, 5-FU, MDM2 inhibitor (RG7388), Bcl-2 inhibitor (ABT199); PDAC: Abraxane, Paclitaxel, Gemcitabine, Doxorubicin, MDM2i (RG7388), Bc12i (ABT199), Bortezomib, Cyclopamine, PARP inhibitor (PJ34)).
(§2) Cells were seeded (numbers vary depending on the cell line) in black 96-well microplate with clear, flat bottom and incubated overnight at 37° C. and 5% CO2. After checking the adherence/confluence of cells, the medium was removed and 100 μl of fresh medium containing the corresponding compound was added to each well. A sequential dilution series (1:4) of 8 concentrations per compound (n=3) were used. Corresponding DMSO concentration and media alone were used as controls.
(§3) After incubation for 3 days at 37° C. and 5% CO2, 100 μl per well CellTiter-Glo reagent (Promega) was added to the plate. Luminescence was measured after 30 minutes agitation at room temperature. IC50-values were calculated with XL-Fit software. Each experiment with one compound was repeated at least twice.
(§4) Cells were seeded (numbers vary depending on the cell line) in black 96-well microplate with clear, flat bottom and incubated overnight at 37° C. and 5% CO2. After checking the adherence/confluence of cells, the medium was removed and 100 μl of fresh medium containing the corresponding compound or combination was added to each well.
(§5) A sequential 1:3 dilution series of 9 concentrations of Drozitumab/anti-human-Fc was done on a 96-well PP-V-bottom microplate (n=6). […] 25 μl/well of the Drozitumab/anti-human-Fc series were then transferred to the cells.
(§6) After incubation for 3 days at 37° C. and 5% CO2 100 μl per well CellTiter-Glo reagent (Promega) were given to the plates. Luminescence was measured after 30 minutes agitation at room temperature.
(§7) For each concentration of Drozitumab/anti-human-Fc and Drozitumab/anti-human-Fc+compound triplicates were done on the same plate and each experiment was repeated at least twice.

[3] = test system: Bxpc3; experiment: Combination screen PDAC cell lines (CellTiter-Glo); assay type: cell-based; details: for IC50: agent alone, 3 days, read-out: IC50 monotherapy
Description: as §1, §2, §3, §4, §5, §6, §7

[4] = test system: Capan2; experiment: Combination screen PDAC cell lines (CellTiter-Glo); assay type: cell-based; details: for % max. inhibition (mono): first figure of mono/combo
Description: as §1, §2, §3, §4, §5, §6, §7

[5] = test system: Aspc1; experiment: Combination screen PDAC cell lines (CellTiter-Glo); assay type: cell-based; details: for IC50: agent alone, 3 days, read-out: IC50 monotherapy; for % max. inhibition (mono): first figure of mono/combo
Description: as §1, §2, §3, §4, §5, §6, §7

[6] = test system: HCT116; experiment: Combination screen CRC cell lines (CellTiter-Glo); assay type: cell-based, human; details: for % max. inhibition (mono): first figure of mono/combo; for % max. inhibition (combo): second figure of mono/combo; for IC50: 3 days
Description: as §1, §2, §3, §4, §5, §6, §7

[7] = test system: SW480; experiment: Combination screen CRC cell lines (CellTiter-Glo); assay type: cell-based; details: for % max. inhibition (mono): first figure of mono/combo; for % max. inhibition (combo): second figure of mono/combo
Description: as §1, §2, §3, §4, §5, §6, §7

[8] = test system: HT29; experiment: Combination screen CRC cell lines (CellTiter-Glo); assay type: cell-based; details: for IC50: 3 days; for % max. inhibition (mono): first figure of mono/combo; for Fold change IC50 (DR5 ab mono vs combo) / % max. inhibition (combo): n.s. = not significant; for % max. inhibition (combo): second figure of mono/combo
Description: as §1, §2, §3, §4, §5, §6, §7

[9] = clinical studies; cited from earlier work
[10] = Homo sapiens, PANC-1, 72 h, Panc1, agent alone, read-out: IC50 monotherapy
[11] = Panc1, second figure of mono/combo, n.s. = not significant
[12] = Bxpc3, first figure of mono/combo
[13] = Bxpc3, second figure of mono/combo, n.s. = not significant
[14] = Homo sapiens, BXPC-3, 72 h, Bxpc3
[15] = Capan2, second figure of mono/combo, n.s. = not significant
[16] = Aspc1, second figure of mono/combo, n.s. = not significant
[17] = Homo sapiens, PANC-1, 72 h, Panc1, DR5 ab + Fc titrated in combination with 1x IC50 of the named compound, read-out: IC50 Combo
[18] = Homo sapiens, HT-29, 72 h, agent alone, read-out: IC50 monotherapy
[19] = agent alone, read-out: IC50 monotherapy
[20] = DR5 ab + Fc titrated in combination with 1x IC50 of the named compound, read-out: IC50 combo

Molecule	Fold change IC50 (DR5 ab mono vs combo) ([2]; Panc1, n.s. = not significant)	% max. inhibition (combo) [2, 11]	Fold change IC50 (DR5 ab mono vs combo) ([3]; Bxpc3, n.s. = not significant)	% max. inhibition (combo) [3, 13]	% max. inhibition (mono) ([4]; Capan2)	% max. inhibition (combo) [4, 15]	Fold change IC50 (DR5 ab mono vs combo) ([5]; Aspc1, n.s. = not significant)	% max. inhibition (combo) [5, 16]	% max. inhibition (mono) [6]	% max. inhibition (combo) [6]	% max. inhibition (mono) [7]	Fold change IC50 (DR5 ab mono vs combo) ([7]; n.s. = not significant)	% max. inhibition (combo) [7]	Fold change IC50 (DR5 ab mono vs combo) [8]	% max. inhibition (combo) [8]	other results
28H1: FAP binder, VH SEQ ID NO. 15 / VL SEQ ID NO. 16, described in WO 2012/020006	–	–	–	–	–	–	–	–	–	–	–	–	–	–	–	Species Cross-Reactivity [1]: Human, cyno, murine; Binding Mode ([1]; cell wraps r13-r15: No interference with signaling/protease function, conformational epitope): conformational epitope; Specificity ([1]; cell wraps r17-r18: No binding to hu DPP-IV (CD26, closest FAP homologue)): No binding to hu DPP-IV
CC(C)C[C@H](NC(=O)[C@H](Cc1ccccc1)NC(=O)c1cnccn1)B(O)O [Bortezomib, [(1R)-3-methyl-1-[(2S)-3-phenyl-2-(pyrazin-2-ylformamido)propanamido]butyl]boronic acid]	n.s.	n.s.	8	100%	40%	95%	n.s.	n.s.	–	–	–	–	–	–	–	IC50 [2, 10]: 8.5 nM; % max. inhibition (mono) [3, 12]: 60%; IC50 [3, 14]: 10 nM; IC50 ([4]; Homo sapiens, Capan-2, 72 h, Capan2, agent alone, 3 days, read-out: IC50 monotherapy): 20 nM; IC50 ([5]; Homo sapiens, 72 h, Aspc1): 30 nM
CC(=O)O[C@H]1C(=O)[C@@]2(C)[C@H]([C@H](OC(=O)c3ccccc3)[C@]3(O)C[C@H](OC(=O)[C@H](O)[C@@H](NC(=O)c4ccccc4)c4ccccc4)C(C)=C1C3(C)C)[C@]1(OC(C)=O)CO[C@@H]1C[C@@H]2O [Paclitaxel, 5β,20-Epoxy-1,2α,4,7β,10β,13α-hexahydroxytax-11-en-9-one 4,10-diacetate 2-benzoate 13-ester with (2R,3S)-N-benzoyl-3-phenylisoserine]	8733	70%	1	100%	50%	80%	31	75%	–	–	–	–	–	–	–	IC50 [2, 17]: 0.03 nM; IC50 [2, 10]: 15 nM; % max. inhibition (mono) ([2]; Panc1): 50%; % max. inhibition (mono) [3, 12]: 80%; IC50 [3, 14]: 250 nM; % max. inhibition (mono) ([5]; Aspc1): 30%
CC1=C2C[C@H]3[C@@H](CC=C4C[C@@H](O)CC[C@@]43C)[C@@H]2CC[C@]12O[C@@H]1C[C@H](C)CN[C@H]1[C@H]2C [Cyclopamine, (3β,23R)-17,23-Epoxyveratraman-3-ol]	–	–	–	–	–	–	–	–	–	–	–	–	–	–	–	% max. inhibition (combo) [2]: n.s.; % max. inhibition (combo) [3]: 65/95%; % max. inhibition (mono) [3]: 65/95%; % max. inhibition (combo) [4]: n.s.; % max. inhibition (combo) [5]: n.s.
CCc1c2c(nc3ccc(OC(=O)N4CCC(N5CCCCC5)CC4)cc13)-c1cc3c(c(=O)n1C2)COC(=O)[C@]3(O)CC [Irinotecan, (S)-4,11-diethyl-3,4,12,14-tetrahydro-4-hydroxy-3,14-dioxo1H-pyrano[3′,4′:6,7]-indolizino[1,2-b]quinolin-9-yl-[1,4′bipiperidine]-1′-carboxylate]	–	–	–	–	–	–	–	–	60%	95%	60%	n.s.	95%	83	100%	IC50 [8, 18]: 9000 nM; % max. inhibition (mono) [8]: 40%
O=c1[nH]cc(F)c(=O)[nH]1 [5-FU, 5-Fluoro-1H,3H-pyrimidine-2,4-dione]	–	–	–	–	–	–	–	–	60%	90%	50%	70000	65%	25	85%	IC50 ([6]; Homo sapiens, HCT-116, 72 h, agent alone, read-out: IC50 monotherapy): 2500 nM; IC50 ([7]; Homo sapiens, 72 h, DR5 ab + Fc titrated in combination with 1x IC50 of the named compound, 3 days, n.s. = not significant, read-out: IC50 combo): 0.002 nM; IC50 [8, 18]: 2500 nM; % max. inhibition (mono) [8]: 50%
DR5 ab + Fc: DR5 antibody (drozitumab) + crosslinking via an anti-Fc antibody, surrogate for FAP crosslinking	–	–	–	–	–	–	–	–	–	–	–	–	–	–	–	IC50 [6, 19]: 0.15 nM; IC50 ([7]; agent alone, 3 days, read-out: IC50 monotherapy): 140 nM; IC50 [8, 19]: 2.5 nM; IC50 ([2]; Panc1, agent alone, read-out: IC50 monotherapy): 262 nM; IC50 ([3]; Bxpc3): 3 nM; IC50 ([5]; Aspc1): 5 nM
CC1(C)CCC(CN2CCN(c3ccc(C(=O)NS(=O)(=O)c4ccc(NCC5CCOCC5)c([N+](=O)[O-])c4)c(Oc4cnc5[nH]ccc5c4)c3)CC2)=C(c2ccc(Cl)cc2)C1 [Bcl2i (ABT199), (4-(4-{[2-(4-chlorophenyl)-4,4-dimethylcyclohex-1-en-1-yl]methyl}piperazin-1-yl)-N-({3-nitro-4-[(tetrahydro-2H-pyran-4-ylmethyl)amino]phenyl}sulfonyl)-2-(1H-pyrrolo[2,3-b]pyridin-5-yloxy)benzamide)]	n.s.	n.s.	n.s.	n.s.	20%	60%	n.s.	n.s.	50%	80%	5%	n.s.	30%	3	n.s.	Fold change IC50 (DR5 ab mono vs combo) [6]: 500; IC50 combo ([7]; DR5 ab + Fc titrated in combination with 1x IC50 of the named compound, 3 days, n.s. = not significant): n.s.
CN(C)CC(=O)Nc1ccc2[nH]c(=O)c3ccccc3c2c1.Cl [PARPi (PJ34)]	n.s.	n.s.	10	n.s.	–	n.s.	17	70%	–	–	–	–	–	–	–	% max. inhibition (mono) ([5]; Aspc1): 10%
Nc1ccn([C@@H]2O[C@H](CO)[C@@H](O)C2(F)F)c(=O)n1 [Gemcitabine, 4-amino-1-(2-deoxy-2,2-difluoro-β-D-erythro-pentofuranosyl)pyrimidin-2(1H)-on]	5	75%	15	80%	35%	60%	50	55%	–	–	–	–	–	–	–	IC50 [2, 17]: 52.9 nM; IC50 [2, 10]: 2000 nM; % max. inhibition (mono) ([2]; Panc1): 50%; % max. inhibition (mono) [3, 12]: 45%; IC50 [3, 14]: 30 nM; % max. inhibition (mono) ([5]; Aspc1): 25%; IC50 ([5]; Homo sapiens, 72 h, Aspc1): 2000 nM
O=C1[O][Pt]2([NH][C@@H]3CCCC[C@H]3[NH]2)[O]C1=O [Oxaliplatin, [(1R,2R)-cyclohexane-1,2-diamine](ethanedioato-O,O′)platinum(II)]	–	–	–	–	–	–	–	–	20%	90%	60%	n.s.	80%	13	90%	Fold change IC50 (DR5 ab mono vs combo) [6]: 4; IC50 [6, 20]: 0.04 nM; IC50 [6, 19]: 5000 nM; IC50 [8, 20]: 0.2 nM; IC50 [8, 19]: 5000 nM; % max. inhibition (mono) [8]: 30%
Tigatuzumab: humanized DR5 agonistic antibody	–	–	–	–	–	–	–	–	–	–	–	–	–	–	–	maximally tolerated dose (MTD) [9]: up to 8 mg/kg
